The target in test [1] is T1, CYP11B1 (steroid 11 β-hydroxylase) (Homo sapiens, UniProt P15538).
T1 construct: the NCI-H295R cells have CYP11B1 (steroid 11 β-hydroxylase); host or cells: NCI-H295R
T1 sequence (P15538 25-503): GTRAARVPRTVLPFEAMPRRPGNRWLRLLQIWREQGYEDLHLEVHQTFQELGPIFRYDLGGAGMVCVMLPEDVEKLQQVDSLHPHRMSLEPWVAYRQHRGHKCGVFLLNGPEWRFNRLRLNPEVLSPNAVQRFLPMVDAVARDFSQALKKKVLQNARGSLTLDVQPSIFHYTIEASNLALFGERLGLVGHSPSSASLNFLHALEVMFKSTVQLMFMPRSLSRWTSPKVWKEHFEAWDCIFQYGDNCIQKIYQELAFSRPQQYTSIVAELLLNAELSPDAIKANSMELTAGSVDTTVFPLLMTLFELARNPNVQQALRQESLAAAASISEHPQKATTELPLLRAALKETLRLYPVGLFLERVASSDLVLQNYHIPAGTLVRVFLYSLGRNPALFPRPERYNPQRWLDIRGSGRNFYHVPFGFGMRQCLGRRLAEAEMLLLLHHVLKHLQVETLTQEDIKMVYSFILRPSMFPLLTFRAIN
Kind of test: Cortisol cell secretion in NCI-H295R cells (in vitro inhibitory activity for CYP11B1). The test is classed as cell-based. Conditions: compound at 1 μM. An excerpt: The in vitro inhibitory activities for CYP11B1 can be determined by the following assay.
The cell line NCI-H295R was originally isolated from an adrenocortical carcinoma and has been characterized in the literature through the stimulable secretion of steroid hormones and the presence of the enzymes essential for steroidogenesis. Thus, the NCI-H295R cells have CYP11B1 (steroid 11 β-hydroxylase). The cells show the physiological property of zonally undifferentiated human fetal adrenocortical cells which, however, have the capacity to produce the steroid hormones which are formed in the three, phenotypically distinguishable zones in the adult adrenal cortex.
The NCI-H295R cells (American Type Culture Collection, ATCC, Rockville, Md., USA) are grown in Dulbeoco's Modified Eagle'Ham F-12 Medium (DME/F12), which has been supplemented with Ulroser SF Serum (Soprachem, Cergy-Saint-Christophe, France), insulin, transferrin, selenite (I-T-S, Becton Dickinson Biosiences, Franklin lakes, N.J., USA) and antibiotics in 75 cm^2 cell culture vessels at 37° C. and in a 95% air-5% carbon dioxide atmosphere. The cells are subsequently transferred for colony formation into a 24-well incubation vessel. They are cultivated there in DME/F12 medium, which is now supplemented with 0.1% bovine serum instead of Ultroser SF for 24 hours. The experiment is initiated by cultivating the cells in DME/F12 medium which is supplemented with 0.1% bovine serum albumin and test compound, in the presence or absence of cell stimulants, for 72 hours. The test substance is added in a concentration range from 0.2 nanomolar to […]. Cell stimulants which can be used are angiotensin II ([…] or 100 nanomolar), potassium ions (16 millimolar), forskolin (10 micromolar) or a combination of two stimulants.
The excretion of aldosterone, cortisol, corticosterone and estradiol/estrone into the culture medium can be detected and quantified by commercially available, specific monoclonal antibodies in radioimmunoassays in accordance with the manufacturer's instructions.
(§1) Inhibition of the release of certain steroids can be used as a measure of the respective enzyme inhibition by the added test compounds. The dose-dependent inhibition of enzymatic activity by a compound is calculated by means of an inhibition plot which is characterized by an IC50.
The inhibition activity of CYP11B1 production can also be expressed in percentage inhibition (% inhibition) at a given concentration (e.g. % inhibition at 1 μM), which is the cortisol level when cell is treated with the given concentration of a compound of the invention (e.g. concentration of 1 μM) versus the cortisol excretion when cell is free of the compound of the invention. % inhibition cortisol production=[(Y′−X′)/Y′]×100 wherein X′ is the level of cortisol when the cell is treated with a compound of Formula I; and Y′ is the level of cortisol when the cell is free of compound of Formula I.

Another test concerns the target T2, aldosterone synthase (Homo sapiens, UniProt P19099).
T2 construct: host or cells: NCI-H295R
T2 sequence (P19099 25-503): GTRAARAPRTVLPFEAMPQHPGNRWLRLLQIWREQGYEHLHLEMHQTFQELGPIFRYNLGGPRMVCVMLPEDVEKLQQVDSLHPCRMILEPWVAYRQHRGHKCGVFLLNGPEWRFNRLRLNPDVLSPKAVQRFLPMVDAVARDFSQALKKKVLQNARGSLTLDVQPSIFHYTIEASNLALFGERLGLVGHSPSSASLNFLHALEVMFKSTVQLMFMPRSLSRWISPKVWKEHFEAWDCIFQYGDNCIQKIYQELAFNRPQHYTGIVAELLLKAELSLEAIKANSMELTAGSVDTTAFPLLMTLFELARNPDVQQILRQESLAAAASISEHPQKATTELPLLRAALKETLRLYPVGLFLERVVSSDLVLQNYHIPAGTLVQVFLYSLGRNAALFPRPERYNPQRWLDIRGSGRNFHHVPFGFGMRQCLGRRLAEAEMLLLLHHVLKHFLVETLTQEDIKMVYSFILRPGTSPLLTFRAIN
Kind of test: Aldosterone cell secretion in Ang II-stimulated NCI-H295R cells (SPA with anti-aldosterone antibody). In kind it is cell-based. Conditions: human adrenocortical carcinoma NCI-H295R cells, 1 μM Ang II, 24 h.
Description: In particular, the aldosterone synthase inhibitory activities in vitro can be determined by the following assay.
Human adrenocortical carcinoma NCI-H295R cell line was obtained from American Type Culture Collection (Manassas, Va.). Insulin/transferrin/selenium (ITS)-A supplement (100×), DMEM/F-12, antibiotic/antimycotic (100×), and fetal bovine serum (FBS) were purchased from Invitrogen (Carlsbad, Calif.). Anti-mouse PVT scintillation proximity assay (SPA) beads and NBS 96-well plates were obtained from GE Health Sciences (Piscataway, N.J.) and Corning (Acton, Mass.), respectively. Solid black 96-well flat bottom plates were purchased from Costar (Corning, N.Y.). Aldosterone and angiotensin (Ang II) were purchased from Sigma (St. Louis, Mo.). D-[1,2,6,7-^3H(N)]aldosterone was acquired from PerkinElmer (Boston, Mass.). Nu-serum was a product of BD Biosciences (Franklin Lakes, N.J.).
On the following day, cells are rinsed with 100 μL of phosphate-buffered saline (PBS) and incubated with 100 μL of treatment medium containing 1 μM Ang II and a compound at different concentrations in quadruplicate wells at 37° C. for 24 h. At the end of incubation, 50 μL of medium is withdrawn from each well for measurement of aldosterone production by an SPA using mouse anti-aldosterone monoclonal antibodies.
Measurement of aldosterone activity can also be performed using a 96-well plate format. […] Anti-mouse PVT SPA beads (50 μL) are then added to each well and incubated overnight at room temperature prior to counting in a Microbeta plate counter. The amount of aldosterone in each sample is calculated by comparing with a standard curve generated using known quantities of the hormone.
as §1
The inhibition plot is calculated by fitting a 4-parameter logistic function to the raw data points using the least squares method. The equation of the 4-parameter logistic function is calculated as follows: Y=(d−a)/((1+(x/c)b))+a, where: a=minimum data level, b=gradient, I […], d=maximum data level, x=inhibitor concentration.

Regarding `CCS(=O)(=O)NCc1cncc(-c2cc3cnc(Cl)cc3n2C)c1` [Ethanesulfonic acid [5-(6-chloro-1-methyl-1H-pyrrolo[3,2-c]pyridin-2-yl)-pyridin-3-ylmethyl]-amide], the inhibition at 1 µM in test [1] amounted to 15%. The molecule further displayed an IC50 against aldosterone synthase of 165 nM.
With `CCS(=O)(=O)N(CCO)C(c1cncc(-c2ccc(C#N)c(Cl)c2)c1)C1CC1` (centres unmarked) [Ethanesulfonic acid {[5-(3-chloro-4-cyano-phenyl)-pyridin-3-yl]-cyclopropyl-methyl}-(2-hydroxy-ethyl)-amide], in test [1] (NCI-H295R), the inhibition at 1 µM is 51%. On aldosterone synthase, this molecule returned an IC50 of 20 nM.
In the case of `CCS(=O)(=O)N(CC(C)C)C(c1cncc(-c2ccc(C#N)c(Cl)c2)c1)C1CC1` (centres unmarked) [Ethanesulfonic acid {[5-(3-chloro-4-cyano-phenyl)-pyridin-3-yl]-cyclopropyl-methyl}-isobutyl-amide], the inhibition at 1 µM in test [1] (NCI-H295R) is 35%. For the same molecule, the half-inhibitory concentration (IC50) on aldosterone synthase came to 98 nM.
`CCS(=O)(=O)NC1CC1c1cncc(-c2cccc(Cl)c2Cl)c1` (centres unmarked) [N-(2-(5-(2,3-dichlorophenyl)pyridin-3-yl)cyclopropyl)ethane-sulfonamide]: the inhibition at 1 µM in test [1] (NCI-H295R) came to 75%. For the same molecule, it took 3 nM to reach half-maximal inhibition at aldosterone synthase (IC50).
Taken in the same sequence, the figures for `CCS(=O)(=O)NC(C)(C)c1cncc(-c2ccc(C#N)c(Cl)c2)c1` [N-(2-(5-(3-chloro-4-cyanophenyl)pyridin-3-yl)propan-2-yl)ethanesulfonamide] were 66% and 99 nM.
Taken in the same sequence, the figures for `N#Cc1ccc(-c2cncc(NS(=O)(=O)Cc3ccccc3Cl)c2)cc1Cl` [N-(5-(3-chloro-4-cyanophenyl)pyridin-3-yl)-1-(2-chlorophenyl)methanesulfonamide] were 34% and 45 nM.
Taken in the same sequence, the figures for `CCS(=O)(=O)NC(c1cncc(-c2ccc(C#N)cc2F)c1)C1CC1` (centres unmarked) [N-(5-(4-cyano-2-fluorophenyl)pyridin-3-yl)(cyclopropyl)methyl)ethanesulfonamide] were 39% and 167 nM.
With `COc1cc(-c2cncc(NS(=O)(=O)C3CC3)c2)ccc1C#N` [N-(5-(4-cyano-3-methoxyphenyl)pyridin-3-yl)cyclopropane-sulfonamide], the inhibition at 1 µM in test [1] (NCI-H295R) stood at 32%. The molecule further returned an IC50 at aldosterone synthase of 77 nM.
In the same order, the values of `CCS(=O)(=O)Nc1cncc(-c2ccc(C#N)c(OC)c2)c1` [N-(5-(4-cyano-3-methoxyphenyl)pyridin-3-yl)ethanesulfonamide] are 38% and 33 nM.
Taken in the same sequence, the figures for `CCS(=O)(=O)NC(c1ccc(F)cc1)c1cncc(-c2ccc(C#N)c(C)c2)c1` (centres unmarked) [N-(5-(4-cyano-3-methylphenyl)pyridin-3-yl)(4-fluorophenyl)methyl)ethane-sulfonamide] were 23% and 121 nM.
In the same order, the values of `CCS(=O)(=O)NCc1cncc(-c2nc3ccc(Cl)cc3n2C)c1` [N-(5-(6-chloro-1-methyl-1H-benzo[d]imidazol-2-yl)pyridin-3-yl)methyl)ethanesulfonamide] are 24% and 97 nM.
Regarding `CCS(=O)(=O)N(C)C(c1cncc(-c2ccc(C#N)c(Cl)c2)c1)C1CC1` (centres unmarked) [N-((5-(3-chloro-4-cyanophenyl)pyridin-3-yl)(cyclopropyl)methyl)-N-methylethanesulfonamide], the inhibition at 1 µM in test [1] (NCI-H295R) came to 63%. The same molecule registered an IC50 against aldosterone synthase of 5 nM.
In the same order, the values of `CCS(=O)(=O)NC(c1cncc(-c2ccc(F)c(Cl)c2)c1)C1CC1` (centres unmarked) [N-((5-(3-chloro-4-fluorophenyl)pyridin-3-yl)(cyclopropyl)methyl)-ethanesulfonamide] are 21% and 22 nM.
Taken in the same sequence, the figures for `CCS(=O)(=O)NC(c1cncc(-c2ccc(Cl)cc2)c1)C1CC1` (centres unmarked) [N-((5-(4-chlorophenyl)pyridin-3-yl)(cyclopropyl)methyl)-ethanesulfonamide] were 31% and 42 nM.
`COc1cc(-c2cncc(CNS(C)(=O)=O)c2)ccc1C#N` [N-((5-(4-cyano-3-methoxyphenyl)pyridin-3-yl)methyl)methane-sulfonamide]: the inhibition at 1 µM in test [1] (NCI-H295R) stood at 40%. This molecule displayed a half-inhibitory concentration (IC50) against aldosterone synthase of 85 nM.
For `CCS(=O)(=O)NC(c1cncc(-c2cccc(Cl)c2Cl)c1)C1CC1` (centres unmarked) [N-(cyclopropyl(5-(2,3-dichlorophenyl)pyridin-3-yl)methyl)ethanesulfonamide], the inhibition at 1 µM in test [1] (NCI-H295R) is 39%. Besides, on aldosterone synthase, the concentration for half-maximal inhibition (IC50) was 5 nM.
`CCS(=O)(=O)NC(c1cncc(-c2ccc(OC(F)(F)F)cc2)c1)C1CC1` (centres unmarked) [N-(cyclopropyl(5-(4-(trifluoromethoxy)phenyl)pyridin-3-yl)methyl)ethanesulfonamide]: the inhibition at 1 µM in test [1] (NCI-H295R) was determined as 20%. For the same molecule, the IC50 against aldosterone synthase is 110 nM.
In the same order, the values of `CCc1ccc(S(=O)(=O)Nc2cncc(-c3ccc(C#N)c(Cl)c3)c2)cc1` [N-[5-(3-Chloro-4-cyano-phenyl)-pyridin-3-yl]-4-ethyl-benzene-sulfonamide] are 78% and 6 nM.
In the same order, the values of `COc1ccc(S(=O)(=O)Nc2cncc(-c3ccc(C#N)c(Cl)c3)c2)cc1` [N-[5-(3-Chloro-4-cyano-phenyl)-pyridin-3-yl]-4-methoxy-benzene-sulfonamide] are 74.5% and 9 nM.

Usually inhibition stands for the change of the read-out against control, counted positive when it falls. Usually IC50 stands for the concentration that gives 50% inhibition.

The values above are taken from patent US8809545B2, “Aryl pyridine as aldosterone synthase inhibitors” (Novartis AG, priority 2009, dated 2014).
